From patent US5627191A, “Therapeutic agents” (The Boots Company PLC, priority 1992, dated 1997)
Where a name gives a salt, the structure may show the parent alone.

Legend:
[1] = test system: Aoki-Okamoto strain of spontaneously hypertensive rat; assay: Test C: oral antihypertensive effect after pretreatment with bendrofluazide, threshold dose; assay type: in vivo; conditions: pretreated with bendrofluazide 10 mg/kg at 16 hours and 2 hours prior to dose
Description: (§1) In test A the binding affinity of compounds to the adrenal membrane angiotensin II receptor was determined in vitro and in tests B and C the antihypertensive effect of the compounds was measured in vivo. A detailed description of the tests follows.
(§2) Female rats, weight range 180-240 g, of the Aoki-Okamoto strain of spontaneously hypertensive rat were used. The rats in groups of four were fasted overnight before administration of the test compound. Blood pressure was determined in the following way. The rats were placed in a cabinet kept at 38° C. with their tails protruding through holes in the cabinet. After 30 minutes in the cabinet blood pressure was measured using an inflatable cuff placed round the base of the mail and arterial pulsations monitored with a pneumatic pulse transducer. […] The pressure in the cuff at which arterial pulsations reappeared was taken as the blood pressure. The rats were removed from the cabinet and each group orally dosed with a given dose of the test compound given as a solution or suspension in 0.25% aqueous carboxymethylcellulose. In addition to the predose reading, blood pressure was measured at 1.5 and 5.0 hours after dosing. The degree of blood pressure reduction sufficient to achieve a significance level of p<0.01 compared to controls was 9% after correction for control changes at appropriate time intervals. Thus, compounds were considered to be active in this test if they produced a reduction of blood pressure after correction of 9% or greater than 9%.
(§3) Threshold antihypertensive doses of compounds of formula I were determined in the following way. Compounds were tested initially at a particular dose level, for example 90 mg/kg.
The procedure of Test B above was carried out subject to the modification of pretreating the rats with bendrofluazide 10 mg/kg (an orally administered diuretic) at 16 hours and 2 hours prior to the dose of the test compound, to ensure activation of the reninangiotensin system.
The activities of the compounds described in the Examples given hereinafter are set out below in Table A, Column 3.

[2] = target: T1, adrenal membrane angiotensin II receptor (Oryctolagus cuniculus, UniProt P34976); assay: Test A: binding affinity to the adrenal membrane angiotensin II receptor in vitro; design: species or system rabbit (male New Zealand white); conditions: rabbit adrenal membranes, 0.05 nM [^125 I]angiotensin II, 60 minutes at 25° C.; read-out: Ki from Test A
T1 construct: Aliquots of rabbit adrenal membranes containing 10-30 μg protein were incubated; from tissue; host or cells: adrenal gland membranes of male New Zealand white rabbits
T1 sequence (P34976 1-359): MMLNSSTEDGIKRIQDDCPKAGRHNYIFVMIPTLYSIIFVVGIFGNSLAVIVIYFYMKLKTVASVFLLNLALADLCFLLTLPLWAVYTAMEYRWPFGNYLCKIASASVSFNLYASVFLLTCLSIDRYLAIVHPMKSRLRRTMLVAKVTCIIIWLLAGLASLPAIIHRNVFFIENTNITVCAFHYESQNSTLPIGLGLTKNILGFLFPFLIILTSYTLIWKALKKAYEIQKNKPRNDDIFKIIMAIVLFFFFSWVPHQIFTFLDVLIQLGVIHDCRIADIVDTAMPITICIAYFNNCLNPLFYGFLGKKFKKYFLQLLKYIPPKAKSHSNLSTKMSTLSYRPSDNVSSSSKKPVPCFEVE
Description: In test A the binding affinity of compounds to the adrenal membrane angiotensin II receptor was determined in vitro and in tests B and C the antihypertensive effect of the compounds was measured in vivo. A detailed description of the tests follows. Test A 1) Preparation of Membranes Adrenal glands from male New Zealand white rabbits were homogenised on ice in 20 mM aqueous sodium bicarbonate solution containing 50 μM PMSF (phenylmethanesulphonyl fluoride) (2 ml/g wet weight) using a Polytron (Trademark) homogeniser for 3×15 seconds at setting 8. The homogenate was centrifuged at 900 g for 10 minutes at 4° C. and the pellet was discarded. The supernatant was recentrifuged at 30000 g for 30 minutes at 4° C., and the resulting pellet was resuspended in assay buffer (50 mM Tris-HCl, pH 7.4, containing 1 mM EDTA, 6.5 mM MgCl2, 125 mM NACl, 50 μM PMSF, 5 μg/ml pepstatin and 50 μg/ml each of leupeptin, antipain, aprotinin and chymostatin): 10 ml per g original tissue wet weight. Polyethylene glycol was added (final concentration 30%) as a cryopreservant and the membrane preparation divided into aliquots and stored at -80° C. until required. Protein was determined by a modification of the method of Lowry (Markwell et al, (1978) Anal. Biochem., 87: 206-210). 2) Binding Assay Aliquots of rabbit adrenal membranes containing 10-30 μg protein were incubated with 0.05 nM [^125 I]angiotensin II in the presence or absence of potential angiotensin II antagonists in 1 ml polyamide tubes in a total volume of 200 μI assay buffer. After incubation for 60 minutes am 25° C. the reaction was terminated by the addition of ice-cold assay buffer, and the bound and free radioactivity was separated through Skatron (Trademark) receptor-binding filters, pre-wetted with assay buffer, using a Skatron cell harvester. The filters were washed with ice-cold phosphate buffered saline, dried, and the trapped radioactivity was determined using a gamma counter. Non-specific binding, measured in the presence of 2 μM unlabelled angiotensin II, was subtracted from total binding to obtain specific binding. Radioligand binding curves were analysed using EBDA and LIGAND (Cambridge Biosoft). Values for binding affinity were obtained by nonlinear regression analysis of untransformed data. The activities of the compounds described in the Examples given hereinafter are set out below in Table A, Column 1.

[3] = test system: Aoki-Okamoto strain of spontaneously hypertensive rat; assay: Test B: oral antihypertensive effect, threshold dose; assay type: in vivo; conditions: dose giving a reduction of blood pressure of between 9 and 16% after correction, 1.5 and 5.0 hours after dosing; for minimal effective dose: Rattus norvegicus, po, 5 h, read-out: Threshold anti-hypertensive dose from Test B
Description: as §1, §2, §3
The activities of the compounds described in the Examples given hereinafter are set out below in Table A, Column 2.

Structure (SMILES)	Threshold anti-hypertensive dose from Test C [1] [mg/kg]	Ki [2] [nM]	Threshold anti-hypertensive dose from Test B [3] [mg/kg]	minimal effective dose [3] [mg/kg]
CCCCc1nc(Cl)c(/C=C(\Cc2ccccc2)C(=O)O)n1Cc1ccc(-c2c(O)c(=O)c2=O)cc1 [Example 30, (E)-2-benzyl-3-[2-butyl-4-chloro-1-[4-(2-hydroxy-3,4-dioxocyclobut-1-en-1-yl)benzyl]-1H-imidazol-5-yl]propenoic acid]	≤ 10	77.9		
CCc1nc2c(C)cc(C)nc2n1Cc1ccc(-c2ccccc2-c2c(O)c(=O)c2=O)cc1 (single isomer, unassigned) [Example 5, sodium salt of 3-[4'-(2-ethyl-5,7-dimethyl-3H-imidazo[4,5-b]pyrid-3-ylmethyl)biphenyl-2-yl]-4-hydroxycyclobut-3-ene-1,2-dione]	1	1.78	1	
CCc1nc2c(C)cc(C)nc2n1Cc1ccc(-c2ccccc2-c2c(OC(C)C)c(=O)c2=O)cc1 [Example 1, 3-[4'-(2-ethyl-5,7-dimethyl-3H-imidazo[4,5-b]pyrid-3-ylmethyl)biphenyl-2-yl]-4-isopropoxycyclobut-3-ene-1,2-dione]	30	97.6		
CCCc1nc2c(C)cc(C)nc2n1Cc1ccc(-c2ccccc2-c2c(O)c(=O)c2=O)cc1 [Example 9, sodium salt of 3-[4'-(5,7-dimethyl-2-propyl-3H-imidazo[4,5-b]-pyrid-3-ylmethyl)biphenyl-2-yl]-4-hydroxycyclobut-3-ene-1,2-dione]	0.1	3.71	10	
CCCCc1nc(Cl)c(C=O)n1Cc1ccc(-c2ccccc2-c2c(O)c(=O)c2=O)cc1 [Example 24, 2-butyl-4-chloro-1-[2'-(2-hydroxy-3,4-dioxocyclobut-1-en-1-yl)biphenyl-4-ylmethyl]-1H-imidazole-5-carboxaldehyde]	3	11.1		
CCCCC1=NC2(CCCC2)C(=O)N1Cc1ccc(-c2ccccc2-c2c(O)c(=O)c2=O)cc1 [Example 22, 3-[4'-(2-butyl-5-oxo-2-imidazoline-4-spirocyclopent-1-ylmethyl)biphenyl-2-yl]-4-hydroxycyclobut-3-ene-1,2-dione]	30	3.68		
CCCc1nc(CC)c(C=O)n1Cc1ccc(-c2ccccc2-c2c(O)c(=O)c2=O)cc1 [Example 15, 4-ethyl-1-[2'-(2-hydroxy-3,4-dioxocyclobut-1-en-1-yl)biphenyl-4-ylmethyl]-2-propyl-1H-imidazole-5-carboxaldehyde]	3	13.5		
CCCCc1nc(Cl)c(C(=O)O)n1Cc1ccc(-c2ccccc2-c2c(O)c(=O)c2=O)cc1 [Example 29, 2-butyl-4-chloro-1-[2'-(2-hydroxy-3,4-dioxocyclobut-1-en-1-yl)biphenyl-4-ylmethyl]-1H-imidazole-5-carboxylic acid 0.4 hydrochloride]	3	13.7		> 3
CCc1nc2c(C)c(Cl)c(C)nc2n1Cc1ccc(-c2ccccc2-c2c(O)c(=O)c2=O)cc1 [Example 12, 3-[4'-(6-chloro-2-ethyl-5,7-dimethyl-3H-imidazo-[4,5-b]pyrid-3-ylmethyl)biphenyl-2-yl]-4-hydroxy-cyclobut-3-ene-1,2-dione hydrochloride]		13.3		
CCCCc1nc(Cl)c(C(=O)OC)n1Cc1ccc(-c2ccccc2-c2c(O)c(=O)c2=O)cc1 [Example 28, methyl 2-butyl-4-chloro-1-[2'-(2-hydroxy-3,4-dioxo-cyclobut-1-en-1-yl)biphenyl-4-ylmethyl]-1H-imidazole-5-carboxylate]	10	27.7		
CCc1nc2c(C)cc(C)nc2n1Cc1ccc(-c2ccccc2-c2c(N)c(=O)c2=O)cc1 [Example 6, 3-amino-4-[4'-(2-ethyl-5,7-dimethyl-3H-imidazo[4,5-b]pyrid-3-ylmethyl)biphenyl-2-yl]cyclobut-3-ene-1,2-dione]		400		
CCc1nc2c(C)cc(C)nc2n1Cc1ccc(-c2ccccc2-c2c(OCOC(=O)C(C)(C)C)c(=O)c2=O)cc1 [Example 13, 2-[4'-(2-ethyl-5,7-dimethyl-3H-imidazo[4,5-b]pyrid-3-ylmethyl)biphenyl-2-yl]-3,4-dioxocyclobut-1-en-1-yloxymethyl pivalate]	< 10	19		10
CCCCN(Cc1ccc(-c2ccccc2-c2c(O)c(=O)c2=O)cc1)c1ncncc1C(=O)O [Example 20, 4-[N-butyl-N-[2'-(2-hydroxy-3,4-dioxocyclobut-1-en-1-yl)biphenyl-4-ylmethyl]amino]pyrimidine-5-carboxylicacid 0.6 hydrochloride]	1	81.7		3
CCc1nc2c(C)cc(C)nc2n1Cc1ccc(-c2ccccc2-c2c(O)c(=O)c2=O)cc1 (single isomer, unassigned) [Example 4, 3-[4'-(2-ethyl-5,7-dimethyl-3H-imidazo[4,5-b]pyrid-3-ylmethyl)biphenyl-2-yl]-4-hydroxycyclobut-3-ene-1,2-dione]	0.1	5	0.1	
CCCc1nc2c(C)cc(C)nc2n1Cc1ccc(-c2ccccc2-c2c(O)c(=O)c2=O)cc1 [Example 8, 3-[4'-(5 7-dimethyl-2-propyl-3H-imidazo[4,5-b]pyrid-3-ylmethyl)biphenyl-2-yl]-4-hydroxycyclobut-3-ene-1,2-dione]	< 10	3.19		10
CCc1nc2c(C)c(S(=O)(=O)N(C)C)c(C)nc2n1Cc1ccc(-c2ccccc2-c2c(O)c(=O)c2=O)cc1 [Example 11, 2-ethyl-3-[2'-(2-hydroxy-3,4-dioxocyclobut-1-en-1-yl)biphenyl-4-ylmethyl]-5,7, N,N-tetramethyl-3H-imidazo[4,5-b]pyridine-6-sulphonamide mono-ethyl acetate solvate]		393		
